{"source": "patent US20160151458A1", "about": "“Use Of Unacylated Ghrelin, Fragments And Analogs Thereof As Antioxidant” (ALIZE PHARMA SAS, priority 2013, published 2016)", "key": {"[1]": {"tested_on": "SCs transfected with SOD-2 siRNA", "assay": "In-vitro ischemia of SCs silenced for SOD-2 by siRNA", "type": "cell-based, C57BL/6J mice", "protocol": "(§1) SCs were isolated from gastrocnemius muscles of C57BL/6J wild type mice subjected to ischemia or C57BL/6J mice lacking the GHSR1a and ghrelin genes (10 mice, kind gift of Professor M. Tschöp)^39. To obtain SCs, muscle samples were subjected to enzymatic digestion as described^45. In selected experiments, SCs were recovered from normo-perfused muscles and subjected to in-vitro ischemia in presence of saline, AG (1 μmol/L) or UAG (1 μmol/L). In-vitro ischemia was induced by incubating cells in DMEM+2% FCS at 5% CO2/95% N2 humidified atmosphere, yielding 1% O2 concentrations for 24 h^18. The in-vitro ischemia was also performed in the presence of SB202190 (1 μmol/L).\n(§2) SC cell-cycle progression was evaluated by evaluating the percentage of PCNA-positive cells or by FACS analysis as previously described^46. The percentage of cells in each cell cycle phase was determined by ModFit LT software (Verity Software House. Inc, topsham, ME, USA). Celss proliferation was also assayed by evaluating the percentage of PCNA-positive cells by FACS analysis.\n(§3) Cells were lysed and protein detection was obtained as previously described^47. Cells were lysed (50 mmol/L Tris HCl [pH 8.3], 1% Triton X-100, 10 mmol/L PMSF, 100 U/ml aprotinin, 10 μmol/L leupeptin) and protein concentrations were obtained as previously described^47. […] Densitometric analysis was used to calculate the differences in the fold induction of protein levels and normalized to tubulin, a actin or p38MAPK content. Values are reported as relative amount\n(§4) Intracellular ROS production was evaluated using DCF-DA (5-(and-6)-carboxy-2′,7′-dichlorofluorescein diacetate, […] final concentration) (Molecular Probe, Invitrogen) assay as previously described^23. The formation of TBARS was determined in muscles using the OXI-TEK kit (ZeptoMetrix Corp.) and a luminescence spectrometer (Bio-Rad Laboratories, Hercules, Calif.) with excitation set at 530 nm, emission at 550 nm to measure in-vivo oxidative stress levels^33.\n(§5) Total RNA was isolated using TRIzol reagent (Invitrogen) from SCs recovered from muscles of treated animals or from SCs subjected to in-vitro ischemia. miR-221/222 expression was evaluated by qRT-PCR as previously described^48. Loss-of-function experiments were performed in SCs transfected for 48 h with anti-miRNA negative control, anti-miR-221/222 antagonists (Applied Biosystem, Foxter Cyto CA, USA), according to the manufacturer's instructions^48.\nTo obtain SOD-2 inactivation, SCs were transiently transfected with siRNA for SOD-2 or with duplex siRNAs (Qiagen, Valencia, Calif., USA) as previously described^44. Transfection was performed according to the manufacturer's instructions. Whole cell extracts were processed 48 h after transfection. Cell viability was evaluated at the end of each experiment."}, "[2]": {"tested_on": "SCs transfected with anti-miR-221/222", "assay": "Loss-of-function: SCs transfected with anti-miR-221/222 antago-miRs", "type": "cell-based, mice", "conditions": "anti-miR-221/222 transfected SCs; data not shown", "protocol": "as §5"}, "SCs from double KO mice": {"tested_on": "SCs from double KO mice", "assay": "In-vitro ischemia of SCs from double KO mice lacking the GHSR1a and ghrelin genes", "type": "cell-based, C57BL/6J mice lacking the GHSR1a and ghrelin genes", "protocol": "as §1, §2, §3, §4"}, "[3]": {"tested_on": "C2C12 mouse muscular cell line", "assay": "ROS production (DCF-DA) in C2C12 cells under oxidative stress", "type": "cell-based", "conditions": "1 μmol/L; stress by hypoxia (1% O2), AGEs, hyperglycemia (25 mM) or H2O2; FIG. 8", "protocol": "Kinetic analysis of ROS production was evaluated by using DCF-DA (5-(and-6)-carboxy-2′,7′-dichlorofluorescein diacetate, 0.5 μmol/L final concentration) (Molecular Probe, Invitrogen) assay. C2C12 cells were cultured with 400 μg/ml Advanced Glycated End-product (AGE) or 25 mM glucose (high glucose HG) for 48 h, H2O2 (100 μM) for 2 h. In parallel experiments C2C12 cells were subjected to hypoxia (DMEM+2% FCS in a 5% CO2-95% N2 humidified atmosphere, yielding to 1% O2 concentrations for 24 h). UAG (1 μmol/L) AZP 531 (1 μmol/L) or AZP-502 (1 μmol/L) was added where indicated."}, "[4]": {"tested_on": "satellite cells (SCs) from ischemic muscles", "assay": "SCs recovered from ischemic muscles of treated mice (ex vivo analysis)", "type": "in vivo, C57BL/6J mice", "protocol": "(§6) Male C57BL/6J mice (Charles River Lab., Wilmington, Mass., USA) were anesthetized and unilateral hind limb ischemia was induced as described^42. The normo-perfused contralateral limb of each mouse was used as an internal control. After hind-limb ischemia, animals (18 mice per group) were treated by intra-peritoneal injection daily from 0 to day 21 with either saline, AG (100 μg/kg) or UAG (100 μg/kg). In selected experiments, mice received intramuscular injections of pre-miR oligonucleotides (5 mice/group). To induce toxic damage, 100 μl of 1% barium chloride (BaCl2, Sigma Aldrich) was injected unilaterally into the hind limb (9 mice). Mice were treated according to European Guidelines and policies as approved by the University of Turin Ethical Committee.\nas §1, §3, §4, §5"}, "[5]": {"tested_on": "unilateral hind limb ischemia in C57BL/6J mice (ischemic gastrocnemius muscle)", "assay": "Murine hind-limb ischemia model", "type": "in vivo", "conditions": "for Pax-7/MyoD+ cells in ischemic muscles: FIG. 2A", "protocol": "as §6\nSemiquantitative estimation (by repeated measures analyzed with ANOVA and Newman-Keuls Multiple Comparison test) of foot damage was performed serially using the following classification: 3=dragging of foot (foot necrosis), 2=no dragging but no plantar flexion (foot damage), 1=plantar flexion but no toe flexion (toe damage), and 0=flexing the toes to resist gentle traction on the tail (no damage)^43.\n(§7) Gastrocnemius muscle sections from ischemic or normo-perfused limbs were stained with hematoxylin and eosin for histological analysis. The proportion of fibers with central nuclei (regenerating fibers) was measured by MetaMorph software (Life Sciences Research Imaging Systems) in the injured area and the cross-sectional areas of the fibers in the injured and non-injured areas. For IF analysis, muscle sections were processed as described previously^44. The number of cells expressing the indicated markers or CD31 positive vessels was evaluated as previously described^34.\nas §4"}, "GHSR-1a": {"target": "GHSR-1a (Homo sapiens, UniProt Q92847)", "sequence (Q92847 whole entry)": "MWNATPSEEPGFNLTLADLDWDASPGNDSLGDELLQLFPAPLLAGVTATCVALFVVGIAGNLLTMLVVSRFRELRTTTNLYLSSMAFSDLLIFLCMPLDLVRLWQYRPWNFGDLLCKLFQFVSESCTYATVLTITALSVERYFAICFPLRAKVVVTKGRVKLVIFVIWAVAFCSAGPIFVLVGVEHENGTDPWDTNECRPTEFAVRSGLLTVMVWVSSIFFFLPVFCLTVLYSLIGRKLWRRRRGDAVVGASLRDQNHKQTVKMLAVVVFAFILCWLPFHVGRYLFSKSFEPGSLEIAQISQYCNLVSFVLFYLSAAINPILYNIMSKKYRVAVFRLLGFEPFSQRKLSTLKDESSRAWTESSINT", "conditions": "at physiological concentrations; cited from earlier work"}, "primary SCs": {"tested_on": "primary SCs", "assay": "In-vitro ischemia of primary SCs from normo-perfused muscles", "type": "cell-based, C57BL/6J mice", "conditions": "1 μmol/L, 1% O2 24 h", "protocol": "as §1, §2, §3, §4, §5"}, "[6]": {"tested_on": "BaCl2-injected gastrocnemius muscles of C57BL/6J mice", "assay": "Toxic muscle damage induced by 1% barium chloride (BaCl2)", "type": "in vivo", "conditions": "1% BaCl2; FIG. 3E", "protocol": "as §6, §7"}, "healthy volunteers": {"tested_on": "healthy volunteers", "conditions": "administered concomitantly with ghrelin; cited from earlier work"}}}
{"substance": "Gly-Ser-Ser-Phe-Leu-Ser-Pro-Glu-His-Gln-Arg-Val-Gln-Gln-Arg-Lys-Glu-Ser-Lys-Lys-Pro-Pro-Ala-Lys-Leu-Gln-Pro-Arg (GSSFLSPEHQRVQQRKESKKPPAKLQPR; listed as Homo sapiens) [UAG]", "values": [{"measurement": "UAG-induced miR-221/222 expression", "setting": "[1]; SOD-2 knock-down, FIG. 7B", "value": "SOD-2 knock-down prevents UAG-induced miR-221/222 expression"}, {"measurement": "protection against ROS generation", "setting": "[1]; SOD-2 silenced, FIG. 5B", "value": "did not protect SCs against ROS generation"}, {"measurement": "cell-cycle progression", "setting": "[1]; SOD-2 silenced, FIG. 5C", "value": "the cells did not undergo cell-cycle progression"}, {"measurement": "p38/MAPK phosphorylation", "setting": "[1]; SOD-2 silenced, FIG. 5D", "value": "did not induce p38/MAPK phosphorylation"}, {"measurement": "cell-cycle entry and expression of SOD-2, Pax-7, MyoD, myogenin", "setting": "[2]", "value": "no longer had any effect"}, {"measurement": "p-p38/MAPK levels", "setting": "[2]", "value": "p-p38/MAPK levels were reduced"}, {"measurement": "SC cell-cycle progression", "setting": "SCs from double KO mice; FIG. 5G", "value": "only UAG promoted SC cell-cycle progression"}, {"measurement": "SOD-2 expression", "setting": "SCs from double KO mice; FIG. 5I", "value": "induced SOD-2 expression"}, {"measurement": "protection from ROS generation", "setting": "SCs from double KO mice; FIG. 5J", "value": "protected SCs from ROS generation"}, {"measurement": "p-p38/MAPK, Pax-7, MyoD, Myf5 and myogenin expression", "setting": "SCs from double KO mice; FIGS. 5H, 5I", "value": "induced p-p38/MAPK, Pax-7, MyoD, Myf5 and myogenin expression"}, {"measurement": "protection against oxidative stress (ROS production)", "setting": "[3]", "value": "have a protective effect on C2C12 cells against oxidative stress"}, {"measurement": "expression of miR-221 and miR-222 in SCs (qRT-PCR)", "setting": "[4]; SCs from muscles of treated mice vs controls, FIG. 6A", "value": "significantly increased"}, {"measurement": "ROS production in SCs (DCF-DA)", "setting": "[4]; SCs from treated mice, FIG. 3B", "value": "ROS production was lower"}, {"measurement": "SOD-2 protein expression in SCs", "setting": "[4]; SCs from treated mice, Western blot, FIG. 3C", "value": "SOD-2 protein expression higher"}, {"measurement": "phospho(p)-p38/MAPK protein level in SCs", "setting": "[4]; Western blot, FIG. 2C", "value": "found to be higher"}, {"measurement": "number of isolated Pax-7/MyoD/Myf5+ SCs", "setting": "[4]; ex vivo, FIGS. 2B-2D", "value": "significantly increased number of Pax-7/MyoD/Myf5+SCs"}, {"measurement": "protection against ischemia-induced damage (overall in vivo effect)", "setting": "[5]; 100 μg/kg i.p. daily", "value": "protect against ischemia-induced damage"}, {"measurement": "foot damage (functional score)", "setting": "[5]; 100 μg/kg i.p. daily from day 0, FIG. 1A", "value": "damage was significantly higher in saline- and AG-treated groups than in the UAG-treated group"}, {"measurement": "capillary density, ischemic vs contralateral control muscles of the same animals", "setting": "[5]; 100 μg/kg i.p. daily, FIG. 1B", "value": "no such differences were observed"}, {"measurement": "number of functional vessels in ischemic muscles", "setting": "[5]; 100 μg/kg i.p. daily, FIG. 1B", "value": "larger number of functional vessels"}, {"measurement": "CD68-positive inflammatory cells", "setting": "[5]; 100 μg/kg i.p. daily, FIG. 1E", "value": "reduced number of CD68-positive inflammatory cells"}, {"measurement": "regenerating myofibers in gastrocnemius muscles", "setting": "[5]; 100 μg/kg i.p. daily, FIGS. 1C, 1D", "value": "increased number of regenerating myofibers"}, {"measurement": "myogenin-positive cells in ischemic muscles", "setting": "[5]; FIGS. 2E, 2F", "value": "increased number of myogenin-positive cells"}, {"measurement": "Pax-7/MyoD+ cells in ischemic muscles", "setting": "[5]; day 7", "value": "increased number of Pax-7/MyoD+ cells"}, {"measurement": "Pax-7/MyoD+ cells in ischemic muscles", "setting": "[5]; day 21", "value": "scattered Pax-7/MyoD+ cells were still present"}, {"measurement": "SOD-2/Pax-7+ cells in ischemic muscle", "setting": "[5]; double immunostaining, day 7, FIG. 3D", "value": "increased number of SOD-2/Pax-7+ cells"}, {"measurement": "binding to GHSR-1a", "setting": "GHSR-1a", "value": "fails to bind"}, {"measurement": "PCNA expression", "setting": "primary SCs; FACS, FIG. 4D", "value": "increased PCNA expression"}, {"measurement": "number of cells in S phase", "setting": "primary SCs; FACS, FIG. 4E", "value": "increased"}, {"measurement": "pp38/MAPK level", "setting": "primary SCs; FIG. 4C", "value": "increased levels of pp38/MAPK"}, {"measurement": "ROS production (DCF-DA)", "setting": "primary SCs; FIG. 4F", "value": "ROS production was decreased"}, {"measurement": "SOD-2 expression", "setting": "primary SCs; FIG. 4G", "value": "SOD-2 expression increased"}, {"measurement": "expression of Pax-7, MyoD and myogenin", "setting": "primary SCs; FIGS. 4A, 4B", "value": "only UAG challenge induced expression"}, {"measurement": "regeneration of skeletal muscle after ROS-independent toxic damage", "setting": "[6]", "value": "regeneration of skeletal muscle was no longer observed"}, {"measurement": "effect on the hyperglycemic effects of ghrelin", "setting": "healthy volunteers", "value": "prevent the hyperglycemic effects of ghrelin"}]}
